Laboratory results published in patent US8148391B2 (Cephalon, Inc., priority 2006, dated 2012).
Where two headings read alike, the source gives them in different places. One block for each molecule: values may come before it.

Tests used:
[1] = target: T1, c-Met (cytoplasmic domain) (Homo sapiens, UniProt P08581); assay: c-Met Kinase Assay (same methods as for ALK, with modifications); assay type: biochemical
T1 construct: 10 ng/mL c-Met (cytoplasmic domain, Invitrogen Corporation #PV3143); purchased Invitrogen Corporation PV3143
T1 sequence (P08581 956-1390 limits assumed): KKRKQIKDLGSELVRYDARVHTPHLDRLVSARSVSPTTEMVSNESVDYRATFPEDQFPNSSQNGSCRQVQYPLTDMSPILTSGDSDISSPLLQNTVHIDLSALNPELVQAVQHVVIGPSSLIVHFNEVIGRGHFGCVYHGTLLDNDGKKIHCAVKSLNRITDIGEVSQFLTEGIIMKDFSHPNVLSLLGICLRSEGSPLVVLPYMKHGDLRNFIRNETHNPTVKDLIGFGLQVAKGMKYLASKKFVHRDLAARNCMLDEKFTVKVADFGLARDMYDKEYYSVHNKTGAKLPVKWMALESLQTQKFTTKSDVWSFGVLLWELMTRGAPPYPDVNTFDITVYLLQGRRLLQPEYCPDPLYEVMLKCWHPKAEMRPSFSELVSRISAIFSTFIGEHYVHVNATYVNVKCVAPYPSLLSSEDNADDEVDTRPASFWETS
Method in brief: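 Steps: coat wells with PLC-γ (10 μg/mL, Tris-buffered saline); add 10 ng/mL c-Met cytoplasmic domain to initiate; incubate 15 min, 37° C; detect phosphoproduct via Eu-N1 PT66 antibody.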

[2] = target: T2, baculovirus-expressed ALK (Homo sapiens, UniProt Q9UM73); assay: ALK Kinase Assay (ELISA-type, time-resolved fluorescence); assay type: biochemical
T2 construct: host or cells: baculovirus expression system
T2 sequence (Q9UM73 19-1620): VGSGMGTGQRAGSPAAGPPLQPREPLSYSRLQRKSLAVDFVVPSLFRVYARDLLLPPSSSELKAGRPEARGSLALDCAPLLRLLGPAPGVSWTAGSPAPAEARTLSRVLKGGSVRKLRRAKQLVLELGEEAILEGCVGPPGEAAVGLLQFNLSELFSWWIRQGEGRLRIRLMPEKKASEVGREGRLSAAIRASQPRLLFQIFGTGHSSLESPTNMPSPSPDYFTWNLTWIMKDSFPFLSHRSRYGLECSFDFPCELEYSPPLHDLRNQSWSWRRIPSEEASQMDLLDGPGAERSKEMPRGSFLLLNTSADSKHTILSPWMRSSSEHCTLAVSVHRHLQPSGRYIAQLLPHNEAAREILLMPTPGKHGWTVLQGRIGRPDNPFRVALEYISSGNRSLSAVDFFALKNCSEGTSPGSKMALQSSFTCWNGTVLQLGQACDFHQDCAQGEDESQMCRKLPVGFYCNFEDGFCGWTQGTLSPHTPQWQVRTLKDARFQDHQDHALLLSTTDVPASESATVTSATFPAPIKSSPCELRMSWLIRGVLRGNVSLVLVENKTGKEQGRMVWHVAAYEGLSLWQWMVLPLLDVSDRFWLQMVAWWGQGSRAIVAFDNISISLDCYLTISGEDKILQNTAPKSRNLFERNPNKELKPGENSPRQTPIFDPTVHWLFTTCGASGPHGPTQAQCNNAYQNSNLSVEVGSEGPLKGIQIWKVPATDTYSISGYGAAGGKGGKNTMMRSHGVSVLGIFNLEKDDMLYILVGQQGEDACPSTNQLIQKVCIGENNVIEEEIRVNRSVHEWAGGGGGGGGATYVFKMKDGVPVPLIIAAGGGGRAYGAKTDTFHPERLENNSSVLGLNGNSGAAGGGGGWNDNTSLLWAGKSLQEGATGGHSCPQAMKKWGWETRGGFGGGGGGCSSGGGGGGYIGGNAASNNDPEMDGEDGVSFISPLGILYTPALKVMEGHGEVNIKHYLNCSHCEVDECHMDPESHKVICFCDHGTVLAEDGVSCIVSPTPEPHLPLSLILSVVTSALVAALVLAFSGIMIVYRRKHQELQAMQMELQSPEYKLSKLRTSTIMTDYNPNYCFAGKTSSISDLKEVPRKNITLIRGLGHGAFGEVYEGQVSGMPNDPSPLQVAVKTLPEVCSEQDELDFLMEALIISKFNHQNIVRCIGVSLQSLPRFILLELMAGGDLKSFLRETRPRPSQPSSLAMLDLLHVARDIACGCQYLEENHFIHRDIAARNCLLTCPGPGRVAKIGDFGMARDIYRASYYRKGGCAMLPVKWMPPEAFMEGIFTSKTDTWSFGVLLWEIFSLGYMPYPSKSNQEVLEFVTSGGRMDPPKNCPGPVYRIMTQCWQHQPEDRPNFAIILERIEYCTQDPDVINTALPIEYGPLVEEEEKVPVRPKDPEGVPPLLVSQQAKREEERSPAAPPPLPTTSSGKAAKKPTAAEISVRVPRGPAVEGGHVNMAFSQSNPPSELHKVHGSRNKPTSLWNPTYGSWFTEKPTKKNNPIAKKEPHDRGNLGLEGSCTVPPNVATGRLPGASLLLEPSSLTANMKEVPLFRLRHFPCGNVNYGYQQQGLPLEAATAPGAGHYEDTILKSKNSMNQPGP
Method in brief: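 Wells were coated with phospholipase C-γ at 10 μg/mL in Tris-buffered saline. Adding 30 ng/ml enzyme started the reaction, which ran at 37° C for 15 minutes before Eu-N1 PT66 antibody detection. Percent inhibition versus log10 concentration gave IC50 by variable-slope fit.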

[3] = 1 μM ATP (Km level), 10 ng/mL c-Met, read-out: cMet Activity (c-Met kinase inhibition, IC50 class)
[4] = 1 μM ATP (Km level), 30 ng/ml ALK, 37° C., 15 minutes, read-out: ALK Activity (ALK kinase inhibition, IC50 class)
[5] = c-Met kinase inhibition, 1 μM ATP (Km level), read-out: cMet Activity
[6] = ALK kinase inhibition, 1 μM ATP (Km level), read-out: ALK Activity
[7] = c-Met kinase inhibition, 1 μM ATP, read-out: cMet Activity
[8] = ALK kinase inhibition, 1 μM ATP, read-out: ALK Activity
[9] = 1 μM ATP (Km level), read-out: cMet Activity (c-Met Kinase Inhibition, IC50)
[10] = 1 μM ATP (Km level), read-out: ALK Activity (ALK Kinase Inhibition, IC50)

IC50 [1, 3]: < 100 nM | IC50 [2, 4]: < 100 nM
Molecule: CNC(=O)c1cccc(F)c1Nc1nc(Nc2ccc3c(c2)CCN(C[C@@H](OC)C(F)(F)F)CC3)ncc1Cl [Example 1361, 2-{5-Chloro-2-[3-((R)-3,3,3-trifluoro-2-methoxy-propyl)-2,3,4,5-tetrahydro-1H-benzo[d]azepin-7-ylamino]-pyrimidin-4-ylamino}-3-fluoro-N-methyl-benzamide]

IC50 [1, 7]: 100 to 1000 nM | IC50 [2, 8]: < 100 nM
Molecule: CCN1CCNC(=O)c2ccc(Nc3ncc(Cl)c(N[C@@H]4CCCC[C@H]4NS(C)(=O)=O)n3)cc21 [Example 1451, N-{(1R,2R)-2-[5-Chloro-2-(1-ethyl-5-oxo-2,3,4,5-tetrahydro-1H-benzo[e][1,4]diazepin-8-ylamino)-pyrimidin-4-ylamino]-cyclohexyl}-methanesulfonamide]

IC50 [1, 5]: < 100 nM | IC50 [2, 6]: < 100 nM
Molecule: CNS(=O)(=O)c1ccccc1Nc1nc(Nc2ccc3c(c2)CCCC(=O)N3CC(=O)O)ncc1Cl [Example 9, {7-[5-Chloro-4-(2-methylsulfamoyl-phenylamino)-pyrimidin-2-ylamino]-2-oxo-2,3,4,5-tetrahydro-benzo[b]azepin-1-yl}-acetic acid]

IC50 [1, 7]: > 10000 nM | IC50 [2, 8]: 1000 to 10000 nM
Molecule: 8-{5-Chloro-4-[2-(2-morpholin-4-yl-ethoxy)-phenylamino]-pyrimidin-2-ylamino}-1,3,4,5-tetrahydro-benzo[b]azepin-2-one [Example 1464]

IC50 [1, 9]: > 10000 nM | IC50 [2, 10]: < 100 nM
Molecule: COCCN1CCc2cc(Nc3ncc(Cl)c(Nc4ccc(Cl)cc4S(=O)(=O)N(C)C)n3)c(OC)cc2CC1 [Example 839, 5-Chloro-2-{5-chloro-2-[8-methoxy-3-(2-methoxy-ethyl)-2,3,4,5-tetrahydro-1H-benzo[d]azepin-7-ylamino]-pyrimidin-4-ylamino}-N,N-dimethyl-benzenesulfonamide]

IC50 [1, 3]: < 100 nM | IC50 [2, 4]: < 100 nM
Molecule: CNS(=O)(=O)c1ccccc1Nc1nc(Nc2ccc3c(c2)CNC(=O)CCN3C(=O)C(F)(F)F)ncc1Cl [Example 1303, 2-{5-Chloro-2-[4-oxo-1-(2,2,2-trifluoro-acetyl)-1,2,3,4,5,6-hexahydro-benzo[b][1,5]diazocin-8-ylamino]-pyrimidin-4-ylamino}-N-methyl-benzenesulfonamide]

The next lines start with the molecule.

Molecule: CNC(=O)c1ccccc1Nc1nc(Nc2ccc3c(c2)CCCNC3=O)ncc1Cl [Example 11, 2-[5-Chloro-2-(1-oxo-2,3,4,5-tetrahydro-1H-benzo[c]azepin-7-ylamino)-pyrimidin-4-ylamino]-N-methyl-benzamide]
IC50 [1, 5]: < 100 nM | IC50 [2, 6]: < 100 nM

Molecule: COc1cc2c(cc1Nc1ncc(Cl)c(Nc3ccccc3S(=O)(=O)N(C)C)n1)CCN(CC(=O)N1CCCC1)CC2 [Example 1157, 2-{5-Chloro-2-[8-methoxy-3-(2-oxo-2-pyrrolidin-1-yl-ethyl)-2,3,4,5-tetrahydro-1H-benzo[d]azepin-7-ylamino]-pyrimidin-4-ylamino}-N,N-dimethyl-benzenesulfonamide]
IC50 [1, 3]: 1000 to 10000 nM | IC50 [2, 4]: < 100 nM

Molecule: 2-[5-Chloro-2-(1,4-dimethyl-5-oxo-2,3,4,5-tetrahydro-1H-benzo[e][1,4]diazepin-8-ylamino)-pyrimidin-4-ylamino]-N-methylbenzamide [Example 416]
IC50 [1, 5]: < 100 nM | IC50 [2, 6]: < 100 nM

Molecule: COc1cc2c(cc1Nc1ncc(Cl)c(N[C@@H]3CCCC[C@H]3NS(C)(=O)=O)n1)CCN(CC(C)(F)F)CC2 [Example 784, N-((1R,2R)-2-{5-Chloro-2-[3-(2,2-difluoro-propyl)-8-methoxy-2,3,4,5-tetrahydro-1H-benzo[d]azepin-7-ylamino]-pyrimidin-4-ylamino}-cyclohexyl)-methanesulfonamide]
IC50 [1, 9]: > 10000 nM | IC50 [2, 10]: < 100 nM

Molecule: CS(=O)(=O)N[C@@H]1CCCC[C@H]1Nc1nc(Nc2ccc3c(c2)C2CCC(C3)N2)ncc1Cl (stereo partly drawn) [Example 82, N-{(1R,2R)-2-[2-(12-Aza-tricyclo[7.2.1.0*2,7*]dodeca-2(7),3,5-trien-4-ylamino)-5-chloro-pyrimidin-4-ylamino]-cyclohexyl}-methanesulfonamide]
IC50 [1, 5]: 100 to 1000 nM | IC50 [2, 6]: 1000 to 10000 nM
